Data: paper PMC9538944, “In vitro biotransformation assays using fish liver cells: Comparing rainbow trout and carp hepatocytes” (Frontiers in Toxicology, 2022)
Marks after values point to notes of the source that are not given here.

Test system: common carp hepatocytes
Test: In vitro hepatocyte clearance assay (substrate depletion), carp
Type: in vitro ADME, Cyprinus carpio
Details: 20 °C, 2 µM MXC / 0.5 µM BaP, mean over in vitro runs
Experimental: Isolation of hepatocytes from liver of rainbow trout was performed by a two-step collagenase perfusion procedure which is well established for rainbow trout ([Nabb et al., 2006]; [Fay et al., 2015]). […] In previous studies with common carp, an in vitro digestion method was used to isolate hepatocytes ([Cowan-Ellsberry et al., 2008]; [Dyer et al., 2008]). Here, we adopted the method of [Segner et al. (1993)] who used a two-step collagenase perfusion of carp liver via the Arteria coeliaca for cell isolation. With the perfusion method, the percentage of pancreatic cells in the final cell suspension is typically <5% ([Vogt and Segner, 1997]). Cryopreservation and thawing procedures applied for hepatocytes of both species were based on the standard protocols for rainbow trout ([Fay et al., 2014a]; [Fay et al., 2014b]). The viability of the cells was determined by means of the trypan blue exclusion assay and counting of stained and non-stained cells in a hemocytometer. The carp and trout primary hepatocyte suspensions used in the present study were aliquots of the in vitro preparations used in a previous study investigating the in vitro metabolite patterns of MXC ([Bischof et al., 2016]). A detailed description of the methods and materials used for the preparation of hepatocyte suspensions including the procedures for cell isolation, cryopreservation, and thawing, as well as cell counting, diluting to the target cell concentration, and heat-inactivating can therefore be taken from [Bischof et al. (2016)] and from the cited publications.
The in vitro hepatocyte clearance experiments were performed in a substrate depletion approach according to the methods previously published by [Fay et al. (2014b)]. These methods are in accordance with the procedures provided in the OECD TG 319A on the performance of in vitro hepatocyte clearance assays. In the present study, several in vitro runs with MXC and BaP using suspensions of either freshly isolated or cryopreserved hepatocytes from common carp and rainbow trout were carried out. For the different in vitro runs non-pooled hepatocytes were used, i.e. hepatocytes from different individual fish. For each run, triplicates of live cells (3 × 1 ml at nominal 2 × 10^6 cells/mL) and heat-inactivated cells as controls were dosed with the test chemical dissolved in acetonitrile (ACN) at the targeted concentration (2 µM for MXC and 0.5 µM for BaP) and incubated for 4 h at 15 °C (trout) or 20 °C (carp). MXC and BaP reactions were run side by side in the same in vitro run using the same hepatocyte suspensions. […]
Measured values of parent chemical concentration were log10-transformed and plotted against time. […]

[1] = cryopreserved carp hepatocytes, 4 h time point excluded
[2] = freshly isolated carp hepatocytes, 4 h, nominal 2 × 10^6 cells/mL

Row | Structure (SMILES) | Mean in vitro intrinsic clearance (CLin vitro, int) [1] | Mean in vitro intrinsic clearance (CLin vitro, int) [2]
1 | c1ccc2c(c1)cc1ccc3cccc4ccc2c1c34 [BaP, benzo[a]pyrene] | 0.287 mL/h/10^6 cells | 0.198^* mL/h/10^6 cells
2 | COc1ccc(C(c2ccc(OC)cc2)C(Cl)(Cl)Cl)cc1 [MXC, methoxychlor] | 0.204 mL/h/10^6 cells | 0.287^* mL/h/10^6 cells
